Assay results: PubChem BioAssay AID540268 (Broad Institute, 2011)
Active and inactive are the calls of the source. How the calls were made is not given here.

Assay: growth inhibition of yeast carrying parasite Hsp90, dose response, anti-malarial Hsp90 inhibitor project, ATP luminescence, 48 h, cherry-picked samples (AID 540268);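 on activity change, negative = inhibition: 0% = neutral control wells and -100% = positive control wells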
Details: yeast expressing the parasite Hsp90, ATP luminescence

| Structure (SMILES) | AC50 |
| --- | --- |
| N/C(Cc1ccc(Cl)cc1Cl)=N\OC(=O)c1ccc(Br)o1 | 4.14 µM |
| COc1cc2cnc(-c3ccccc3)c(C(=O)c3ccc(F)cc3)c2cc1OC | 3.01 µM |
| Cc1cccc(Nc2nc(N)c([N+](=O)[O-])c(N3CCCC(C)C3)n2)c1 (configuration not stated) | 2.03 µM |
| O=C1c2ccccc2NC(c2ccc(-c3ccc(C(F)(F)F)cc3)o2)N1O (configuration not stated) | 7.62 µM |
| CCCCCCCCCCCCCCCC[N+](C)(C)Cc1ccc(F)cc1 | 0.213 µM |
| O=C1Nc2ccc(Br)cc2/C1=C/C1CC=CCC1 (configuration not stated) | 8.99 µM |
| CCOC(=O)C1=C(CC)Nc2ccccc2N=C1NC(=O)Nc1ccc(Cl)c(Cl)c1 | 1.43 µM |
| CCOc1ccccc1N1CCN(C(=O)c2cccc(-c3ccc(O)cc3)c2)CC1 | 5.08 µM |
| CN1CCN(C(=O)c2cc(COc3c(F)cccc3F)on2)CC1c1ccccc1 (configuration not stated) | 0.43 µM |
| CC(C)(C)C(=O)NCC12C=CC(O1)C1C(=O)N(c3ccccc3)C(=O)C12 (configuration not stated) | 5.05 µM |
| C=C1C(=O)C23CCC4C(C)(C(=O)OC)CCCC4(C)C2CCC1(O)C3 (configuration not stated) | 1.54 µM |
| Cc1ccc(CSc2nc3ccsc3c(=O)n2Cc2ccccn2)cc1 | 9.62 µM |
| O=C(O)c1ccc(N/N=C/c2ccc(-c3cccc(Cl)c3)o2)cc1 | 8.69 µM |
| CCn1c(CNc2ccc(Cl)cc2)nnc1SCc1ccccc1 | 2.26 µM |
| C=CCn1c(C)cc(C(=O)CSc2nc3ccccc3c(=O)[nH]2)c1C | 3.28 µM |
| CC1=C(O)C(=O)C=C2C1=CC=C1C2(C)CCC2(C)C3CC(C)(C(=O)O)CCC3(C)CCC12C (configuration not stated) | 1.48 µM |
| Oc1ccc2ccccc2c1N=Nc1ccccn1 | 2.66 µM |
| CCCCC(=O)NC(c1ccc(C(C)C)cc1)c1ccc2cccnc2c1O (configuration not stated) | 6.98 µM |
| CCN1CCCC1CN(Cc1cc2ccc(C)cc2[nH]c1=O)C(=S)Nc1ccc(F)cc1 (configuration not stated) | 3.2 µM |
| CCC(C)(C)n1nnnc1C(c1cccnc1)N1CCC(Cc2ccccc2)CC1 (configuration not stated) | 1.52 µM |
| CC(=O)NC(c1ccc(C)cc1)c1cc(Cl)c2cccnc2c1O (configuration not stated) | 4.09 µM |
| Cc1ccc(S(=O)(=O)N(C(=O)c2ccncc2)c2ccc(OC(=O)c3ccncc3)cc2)c(C)c1 | 3.45 µM |

| Structure (SMILES) | AC50 |
| --- | --- |
| CCCCCCCCCC[N+](C)(C)CC/C=C1/c2ccccc2Sc2ccc(Cl)cc21 | 6.32 µM |
| COc1ccc(-c2nnc3n(CCc4ccccc4)c(=O)c4ccccc4n23)c(OC)c1 | 8.97 µM |
| O=[N+]([O-])/C=C/c1cn(Cc2ccc(F)cc2)c2ccccc12 | 5.61 µM |
| O=Nc1c(O)c2ccccc2c2ccccc12 | 1.57 µM |
| CSc1nc2ccc(S(=O)(=O)NC3CCCCC3)cc2s1 | 2.92 µM |
| CC(C)(C)C(O)C(Oc1ccc(Cl)cc1)n1cncn1 (configuration not stated) | < 0.195 µM |
| O=[N+]([O-])c1cnc(Sc2ccncn2)s1 | 3.02 µM |
| CCCCCCCCCCOC(=O)Cn1c(COc2cccc(C)c2)[n+](C)c2ccccc21 | 15.5 µM |
| C[C@@]12C(=O)Nc3ccc(Cl)cc3C(=O)N1[C@H]1c3ccccc3OC[C@@H]1[C@@H]2c1ccccc1 | 0.487 µM |
| CC(C)(C)c1ccc(NC(=O)COC(=O)c2ccc([N+](=O)[O-])s2)cc1 | 3.88 µM |
| CC(C)(C)C(=O)C(Cl)C(=O)Nc1ccccc1 (configuration not stated) | 1.06 µM |
| O=[N+]([O-])c1cccc(C=NNc2ccc3ccccc3n2)c1O | 3.63 µM |
| O=C(Nc1nc(-c2ccccn2)cs1)c1cc2ccccc2o1 | 4.24 µM |
| Clc1ccccc1C(c1ccccc1)(c1ccccc1)n1ccnc1 | < 0.195 µM |
| C=CCn1c(C)cc(C(=O)CSc2nnc(NCc3ccccc3)s2)c1C | 4.2 µM |
| COc1cc(/C=C/[N+](=O)[O-])ccc1OC(=O)c1cccnc1 | 1.65 µM |
| COc1ccc2c(c1)c(=Cc1ccc(N(C)C)cc1)c1cc(-c3ccccc3)[n+](C)n12 | 6.32 µM |
| CCN(C(=O)C1CCCN(c2nc(-c3ccc(OC)cc3)no2)C1)c1ccc(OC)cc1 (configuration not stated) | 4.85 µM |
| COc1ccccc1-c1sc2cc3c(cc2c1-c1ccc(O)cc1)OCO3 | 8.2 µM |
| CCCNC(=O)c1nnsc1S(=O)c1ccc(Cl)cc1 (configuration not stated) | 1.53 µM |
| c1ccc(-c2cccc(-c3ccccn3)n2)nc1 | 1.03 µM |
| Cc1ccc(S(=O)(=O)Nc2ccc3ccccc3c2[N+](=O)[O-])cc1 | 7.36 µM |

| Structure (SMILES) | AC50 |
| --- | --- |
| Nc1ncnc2c1ncn2C1OC(COP(=O)(O)O)C(O)C1O (configuration not stated) | 2.27 µM |
| CC[C@H](C)/C=C/C1=CC2=C(Cl)C(=O)[C@@]3(C)OC(=O)C(C(=O)[C@H](C)[C@@H](C)O)=C3C2=CO1 | 15.2 µM |
| COc1ccc2c(c1)OC[C@H]1[C@H]2N2C(=O)c3cc(Cl)ccc3NC(=O)[C@@]2(C)[C@H]1c1ccccc1 | 1.12 µM |
| COc1ccc(SN=C2C(C)=CC(=O)C=C2C)cc1 | 5.7 µM |
| O=C1C(Cl)=C(Oc2ccccc2)C(=O)c2ccccc21 | < 0.195 µM |
| CC(C)OC(=O)c1ccc(NCc2cc(O)ccc2O)cc1Cl | 24.1 µM |
| CCCC(=O)NC(c1ccco1)c1cc(Cl)c2cccnc2c1O (configuration not stated) | 4.36 µM |
| CCCCCCCCCCCCCCCC[n+]1ccc(C(N)=O)cc1 | 7.6 µM |
| N#CSCC(=O)c1cccc2ccccc12 | 1.92 µM |
| CCCCN(CCCC)CCC(O)c1cc2c(Cl)cc(Cl)cc2c2cc(C(F)(F)F)ccc12 (configuration not stated) | 7.42 µM |
| CCOC(=O)c1ccc(N2C(=O)CC(N(C)CCc3ccc(OC)c(OC)c3)C2=O)cc1 (configuration not stated) | 3.14 µM |
| CCCCCCOC(=O)Sc1nc2ccccc2o1 | 1.57 µM |
| CC(CCc1ccccc1)NC(=O)c1ccc(Br)cc1 (configuration not stated) | 4.71 µM |
| CCN(CC)C1CC(=O)N(c2ccc(Br)cc2)C1=O (configuration not stated) | 2.97 µM |
| O=C1NC(=S)S/C1=C\C=C\c1ccc([N+](=O)[O-])o1 | 2.45 µM |
| C[C@@]12C(=O)Nc3ccc(Br)cc3C(=O)N1[C@H]1c3ccccc3OC[C@@H]1[C@@H]2c1ccccc1 | 0.404 µM |
| CCN(CC)S(=O)(=O)c1cccc(NC(=O)c2ccc(Br)cc2)c1 | 5.81 µM |
| O=C1CC(N2CCC(c3nc4ccccc4o3)CC2)C(=O)N1c1ccc(Cl)c(C(F)(F)F)c1 (configuration not stated) | 4.08 µM |
| COc1ccccc1-c1sc2ccccc2c1-c1ccc(O)cc1 | 3.78 µM |
| CCOc1ccc(Br)cc1C1=NN(C(C)=O)C(c2ccc([N+](=O)[O-])s2)O1 (configuration not stated) | 8.12 µM |
| CC(C)Cn1c(=O)c(C(=O)Nc2ccncc2)c(O)c2ccccc21 | 8.25 µM |
| O=[N+]([O-])c1ccc(Sc2cccc[n+]2[O-])c2nonc12 | 6.88 µM |

| Structure (SMILES) | AC50 |
| --- | --- |
| CCN(CC)N=Nc1[nH]nc2nc(C)cc(C)c12 | 4.33 µM |
| O=C(C=Cc1cccc(O)c1)c1ccccc1O | 1.89 µM |
| O=c1c(Br)ccc(Br)cc1Br | 0.38 µM |
| Oc1c(CN2CCN(c3ccccc3)CC2)cc(Br)c2cccnc12 | 7.92 µM |
| O=C(Nc1ccc(Cl)cc1Cl)c1cccc(N2C(=O)C=CC2=O)c1 | < 0.195 µM |
| CCC(=O)OC1(C)C(=O)C2=COC(c3ccc(OC)cc3)=CC2=C(Br)C1=O (configuration not stated) | 2.81 µM |
| Cn1c(CNc2ccc(Cl)cc2)nnc1SCc1ccccc1 | 3.43 µM |
| Cc1cc(/C=C2\SC(=S)NC2=O)c(C)n1-c1ccc(O)cc1 | 4.65 µM |
| CC(C)C1Nc2c(O)cc(Cl)c([N+](=O)[O-])c2C2C=CCC21 (configuration not stated) | 6.63 µM |
| Cc1c(Cl)cccc1N=Cc1ccc([N+](=O)[O-])s1 | 8.3 µM |
| O=C1C(F)=CC(COC(c2ccccc2)(c2ccccc2)c2ccccc2)OC1n1cc(F)c(=O)[nH]c1=O (configuration not stated) | 0.718 µM |
| Oc1c(Cl)cc(Cl)c(Cl)c1Cc1c(O)c(Cl)cc(Cl)c1Cl | 0.676 µM |
| COc1cc(SC)ccc1C(=O)Nc1nc2ccccc2[nH]1 | 1.96 µM |
| COc1cccc(/C=N/NC(=O)C(=O)Nc2ccccc2OC(F)(F)C(F)F)c1O | 0.731 µM |
| CN1CCN(C(c2ccc(Cl)cc2)c2cc(Cl)c3cccnc3c2O)CC1 (configuration not stated) | 0.615 µM |
| Cc1ccc(N=c2ssnc2Cl)cc1 | 3.28 µM |
| Oc1ccc2ccccc2c1/C=N/Nc1nnc(-c2ncc[nH]2)c2ccccc12 | 4.24 µM |
| O=[N+]([O-])c1ccc(C=Nc2ccc(Cl)c([N+](=O)[O-])c2)s1 | 2.13 µM |
| COC(=O)C1=C(C(=O)OC)SC2(S1)C(C(=O)OC)=C(C(=O)OC)Sc1c2ssc1=O | 8.87 µM |
| Clc1ccc2[nH]c3c(c2c1)CCc1cn[nH]c1-3 | 8.79 µM |
| O=C1OC(c2ccccc2)(c2cc(Br)c(O)c(Br)c2)c2ccccc21 (configuration not stated) | 2.97 µM |
| COCC(=O)n1nc(NCc2ccc(OC)cc2)nc1NCc1ccc(OC)cc1 | 8.06 µM |

| Structure (SMILES) | AC50 |
| --- | --- |
| O=C(/C=C/c1cccc(C(F)(F)F)c1)Nc1cccc(C(F)(F)F)c1 | 8.08 µM |
| CCC(C)n1ncn(-c2ccc(N3CCN(c4ccc(OCC5COC(Cn6cncn6)(c6ccc(Cl)cc6Cl)O5)cc4)CC3)cc2)c1=O (configuration not stated) | < 0.195 µM |
| O=C(OCC(=O)N1CCN(C(=O)c2ccco2)CC1)c1cc(-c2cccc(Br)c2)nc2ccccc12 | 4.39 µM |
| COc1cc(N=Nc2ccc3ccccc3c2)ccc1O | 8.61 µM |
| COc1ccc(OC)c(N2C(=O)NC(=O)/C(=C/c3ccc([N+](=O)[O-])s3)C2=O)c1 | 4.26 µM |
| CCC(=O)NC(c1ccc(Cl)cc1Cl)c1ccc2cccnc2c1O (configuration not stated) | 3.96 µM |
| O=c1oc(-c2ccccc2)cc(Cl)c1Cl | 3.77 µM |
| O=C(N/N=C/c1cc(Cl)c(O)c(Cl)c1)c1cc2c(ccc3ccccc32)o1 | 3.54 µM |
| CCCCCCCCn1sccc1=O | 0.871 µM |
| OCCCn1c(C2CCCN2c2nc(-c3ccc(F)cc3)cs2)nc2cc(Cl)c(Cl)cc21 (configuration not stated) | 5.62 µM |
| O=C1NC(=S)S/C1=C\c1cc2ccccc2nc1N1CCCCC1 | 8.4 µM |
| O=C1C=CC(=O)N1CCNc1ncc(C(F)(F)F)cc1Cl | 0.674 µM |
| O=[N+]([O-])c1ccc2c(c1)-c1ccccc1C2=NO | 2.72 µM |
| Oc1c(C(c2ccccc2Cl)N2CCCC2)ccc2cccnc12 (configuration not stated) | 3.51 µM |
| CCCC(=O)NC(c1ccc2c(c1)OCO2)c1cc(Cl)c2cccnc2c1O (configuration not stated) | 4.45 µM |
| CCCC(=O)NC(c1ccccc1)c1ccc2cccnc2c1O (configuration not stated) | 4.7 µM |
| Cn1nnnc1N=N/C(=N/Nc1ccccc1)c1ccccc1 | 3.2 µM |
| [O-][n+]1cccc2c(Br)cc(Br)c(O)c21 | 3.55 µM |
| Oc1ccc(N=Nc2ccc3ccccc3c2)cc1 | 4.26 µM |

Same assay, conditions: yeast expressing the parasite Hsp90, ATP luminescence, at 26 µM (top of the series)

| Structure (SMILES) | activity change, negative = inhibition |
| --- | --- |
| Cc1ccc(-c2cc(-c3ccc(F)cc3)c(C#N)c(N)n2)o1 | 19.7% (inactive) |
| N#C/C(=C/c1ccc(N2CCCCCC2)o1)c1ccc(Cl)cc1 | -50.5% (inactive) |
| O=C(CCN1C(=O)/C(=C/c2cccs2)SC1=S)NC1=NCCS1 | 60.4% (inactive) |
| Cc1ccc(N2C(=O)C3C4C=CC(CNC(=S)Nc5ccc(F)cc5)(O4)C3C2=O)cc1 (configuration not stated) | 9.97% (inactive) |
| O=C(/C(=C/c1cccc(Cl)c1)c1nc2ccccc2[nH]1)c1ccccc1 | 49.8% (inactive) |
